Test results taken from ChEMBL document CHEMBL5584239, “Discovery of novel quinoline scaffold selective estrogen receptor degraders (SERDs) for treatment of ER positive breast cancer with enhanced antiproliferative bioactivity through immunogenic cell death (ICD) effects” (Eur J Med Chem, 2024).
Calls of active or inactive are those of the source. No cut-off for these calls is given here.

Legend:
Uterus = assay: Effect on immature Sprague-Dawley rat uterus assessed as reduction in uterine wet weight at 2 mg/kg, sc qd for 2 days by H and E staining based analysis; type: functional, organism-based; settings: time 2.0 day
Ishikawa = assay: Antiproliferative activity against human Ishikawa cells at 20 uM incubated for 3 days by MTT assay relative to control; type: functional; settings: 72 h, time 3 day
MCF7 [1] = assay: Induction of ROS production in human MCF7 cells incubated for 3 to 24 hrs by immunofluorescence analysis; type: functional, cell-based; settings: time 3-24 hrs
MCF7 [2] = assay: Induction of cell cycle arrest at G0/G1 phase in human MCF7 cells at 10 uM incubated for 24 hrs by PI/RNase staining based flow cytometry (reference value: 53.5 +/- 1.96 %); type: functional
MCF7 [3] = assay: Synergistic antiproliferative activity against human MCF7 cells at 0.1 to 10000 nM incubated for 5 days in presence of Ribociclib by MTT assay; type: functional, cell-based; settings: dose 0.1-10000 nM, time 5.0 day
MCF7 [4] = assay: Antiproliferative activity against human MCF7 cells incubated for 5 days by MTT assay; type: functional, cell-based; settings: MCF7, 120 h

**Q.** C[C@]12CC[C@@H]3c4ccc(O)cc4C[C@@H](CCCCCCCCC[S+]([O-])CCCC(F)(F)C(F)(F)F)[C@H]3[C@@H]1CC[C@@H]2O (stereo partly specified) [FULVESTRANT] was tested. Which Activity (Uterus) did it give?
**A.** Active

**Q.** What about the inhibition at 20 µM (Ishikawa) of the same molecule?
**A.** -3.19%

**Q.** And the Activity (MCF7 [1])?
**A.** inactive

**Q.** What about the Activity (MCF7 [2]) of the same molecule?
**A.** 66.83%

**Q.** What about the Activity (MCF7 [3]) of the same molecule?
**A.** Active

**Q.** What about the IC50 (MCF7 [4]) of the same molecule?
**A.** 0.646 nM
